Measurements from patent publication US20230096789A1, “PHARMACEUTICAL COMPOSITION FOR INHIBITING INFLAMMATORY RESPONSE COMPRISING HYDROXYUREA” (priority 2020, published 2023).
Like-named read-outs stand apart in the source and are kept apart here.

Experiments:
H1N1 PR8 = assay: In vitro antiviral effect, MTT cell viability in infected MDCK cells; format: cell-based, influenza A virus; settings: 0.001 pfu/cell, 72 hours, hydroxyurea up to 1,561 μg/ml
[1] = system: mice infected with the WR strain of vaccinia virus; format: in vivo; settings: WR 1×10^5 pfu; HU 80 mg/kg/day on days 2 to 14, started 2 days after infection
[2] = system: monkeys with systemic inflammatory syndrome induced by vaccinia virus VV^tk−; format: in vivo, cynomolgus monkeys
Procedure: Male cynomolgus monkeys (n=3) aged 45 to 55 months were subjected to systemic administration of only VV^tk− (1×10^8 pfu), which induces a systemic inflammatory response, or both VV^tk− and hydroxyurea (VV^tk−: 1×10^8 pfu, HU: 80 mg/kg/day and 30 mg/kg/day). Then, toxicity was evaluated by measuring levels of systemic inflammation and pustules, body temperature, body weight, and the like.

mice given LPS = assay: LPS-induced sepsis model (II), survival and ANC (Experimental Example 7); format: in vivo, BALB/c mice; settings: for survival: until day 12; for ANC: blood on day 12
Procedure: Twenty-one BALB/c mice (about 8 weeks old) were divided into 3 groups (LPS, LPS+HU_30, LPS+HU_60; n=7/group). All mice received intraperitoneal administration of LPS at 10 mg/kg on day 0. The mice of the group (LPS+HU_30) received hydroxyurea (30 mg/kg/day, from day -1 to day 3) once a day, and the mice of the group (LPS+HU_60) received hydroxyurea (60 mg/kg/day, from day -1 to day 3) twice a day. Survival of the mice of each group was measured until day 12 at 3-day intervals, and blood samples were collected on day 12 to check the absolute neutrophil count in blood.

[3] = system: mice with sepsis induced by the Western Reserve strain of vaccinia virus; settings: mouse, in vivo
H3N2 HongKong = assay: In vitro antiviral effect, MTT cell viability in infected MDCK cells; format: cell-based, influenza A virus; settings: 0.001 pfu/cell, 72 hours, hydroxyurea up to 1,561 μg/ml
[4] = system: mice infected with H1N1 influenza A (PR8 strain) virus; format: in vivo, mice (BALB/c)
Lee = assay: In vitro antiviral effect, MTT cell viability in infected MDCK cells; format: cell-based, influenza B virus; settings: 0.001 pfu/cell, 72 hours, hydroxyurea up to 1,561 μg/ml
[5] = system: mice infected with H1N1 influenza A virus (maPR8); assay: Influenza virus-induced sepsis model (II), body weight and survival (Experimental Example 6); format: in vivo, BALB/c mice
[6] = system: mice infected with the WR strain of vaccinia virus; format: in vivo, BALB/c mice; settings: for survival: WR low (1×10^5 pfu) or high (1×10^7 pfu) dose, HU 50 mg/kg/day i.p. days 0 to 14, G-CSF 25 μg/kg/day i.p. days 0 to 5; for lung tissue histology: compared with other groups
[7] = system: monkeys with systemic inflammatory syndrome induced by the Western Reserve strain of vaccinia virus
MDCK cells = assay: Cytotoxicity (CC50) by MTT assay; settings: 72 hours
[8] = system: mouse model with sepsis induced by lipopolysaccharide (LPS, from Escherichia coli O55: B5); assay: Bacterial LPS-induced sepsis model, survival (Experimental Example 1); format: in vivo, mice; settings: LPS 10 mg/kg i.p., n=7
Procedure: To identify whether treatment with hydroxyurea could increase survival through an immune response in a mouse model with sepsis induced by lipopolysaccharide (LPS, from Escherichia coli O55: B5L2880, Sigma), an animal experiment was performed.
Each group consisted of 7 mice, and intraperitoneal administration of LPS was performed at 10 mg/kg on day 0. Two groups excluding a control group were subjected to intraperitoneal administration of hydroxyurea at 30 mg/kg once a day or twice a day for 5 days per one week starting from the day before the treatment with LPS (FIG. 1).

[9] = system: mice given wild-type WR strain of vaccinia virus; assay: Histological analysis (H&E) of liver and lung tissues after wild-type WR vaccinia virus (Experimental Example 2.2); format: in vivo; settings: wild-type WR 1×10^7 pfu intranasal, HU 50 mg/kg, G-CSF 25 μg/kg
[10] = co-administration vs virus only
[11] = WR 1×10^8 pfu + HU, vs virus only

NC(=O)NO [hydroxyurea]
antiviral effect (H1N1 PR8): did not show any antiviral effect
protective effect (survival, body weight) [1]: protective effect
systemic inflammation and skin rash lesions (pustules) ([2]; VV^tk− 1×10^8 pfu + HU 80 mg/kg/day and 30 mg/kg/day, vs virus only): remarkably weakened systemic inflammation and inhibition of skin rash lesions such as pustules
absolute neutrophil count ([2]; co-administration): decreased on average and remained stable
number of virus particles ([2]; co-administration): decreased on average and remained stable
body temperature [2, 10]: did not show any significant increase in body temperature
body weight loss [2, 10]: no difference in body weight loss
survival (mice given LPS; LPS+HU_30: 30 mg/kg/day, day -1 to day 3, once a day): remarkably increased survival
ANC (mice given LPS; LPS+HU_30): decreased ANC
survival (mice given LPS; LPS+HU_60: 60 mg/kg/day, day -1 to day 3, twice a day): remarkably increased survival
ANC (mice given LPS; LPS+HU_60): decreased ANC
number of virus particles in blood [3]: highest number of virus particles
survival until day 21 [3]: 40%
antiviral effect (H3N2 HongKong): did not show any antiviral effect
body weight / condition course ([4]; mouse, in vivo): returned to a healthy condition on day 18
surviving mice ([4]; n=7): 5 mice
antiviral effect (Lee): did not show any antiviral effect
survival ([5]; hydroxyurea 50 mg/kg q.d. days -2 to 14, until day 20, n=7): 70%
body weight ([5]; hydroxyurea 50 mg/kg q.d., loss until day 10): recovered to the initial weight on day 20
absolute neutrophil count (ANC) ([6]; WR high dose (1×10^7 pfu), HU 50 mg/kg/day): decreased absolute neutrophil count
survival [6]: increased survival
lung tissue histology [6]: improved aspect
infection by immunofluorescence staining for protein A56 (bronchi) ([6]; lung tissue, between saline, G-CSF and HU groups): no significant difference between the three groups
systemic inflammation and skin rash lesions (pustules) ([7]; WR 1×10^8 pfu + HU 80 mg/kg/day and 30 mg/kg/day, vs virus only): remarkably weakened systemic inflammation and inhibition of skin rash lesions such as pustules
body temperature [7, 11]: did not show any significant increase in body temperature
body weight loss [7, 11]: no difference in body weight loss
absolute lymphocyte count (ALC) ([7]; co-administration group, blood): decreased on average and remained stable
absolute neutrophil count (ANC) ([7]; co-administration group, blood): decreased on average and remained stable
white blood cell count (WBC) ([7]; co-administration group, blood): decreased on average and remained stable
number of virus particles in blood ([7]; day 8 after virus administration, co-administration vs virus only): no significant difference
CC50 (MDCK cells): 1,561 μg/ml
survival until day 12 ([8]; hydroxyurea 30 mg/kg i.p. once a day): 17%
survival until day 12 ([8]; hydroxyurea 30 mg/kg i.p. twice a day): 43%
severity in leakage and exudate levels in the alveoli and ischemic change level in the liver tissue (order of groups) [9]: in the order of the group having received hydroxyurea, the group having received G-CSF, and the control group

NC(=O)c1ncn([C@@H]2O[C@H](CO)[C@@H](O)[C@H]2O)n1 [ribavirin]
antiviral effect (H1N1 PR8): next clear effect
antiviral effect (H3N2 HongKong): next clear effect
antiviral effect (Lee): next clear effect

NC12CC3CC(CC(C3)C1)C2 [AMT, amantadine]
antiviral effect (H1N1 PR8): next clear effect
antiviral effect (H3N2 HongKong): next clear effect
antiviral effect (Lee): next clear effect

CCOC(=O)C1=C[C@@H](OC(CC)CC)[C@H](NC(C)=O)[C@@H](N)C1 [Tamiflu, oseltamivir]
survival ([4]; mouse, in vivo): survived regardless of the concentration

B1: G-CSF (protein, UniProt P09919 31-207, looked up)
Granulocyte …: TPLGPASSLPQSFLLKCLEQVRKIQGDGAALQEKLVSECATYKLCHPEELVLLGHSLGIPWAPLSSCPSQALQLAGCLSQLHSGLFLYQGLLQALEGISPELGPTLDTLQLDVADFATTIWQQMEELGMAPALQPTQGAMPAFASAFQRRAGGVLVASHLQSFLEVSYRVLRHLAQP
time within which all mice died after administration of the WR strain [3]: ≤ 14 days
survival [6]: decreased survival
absolute neutrophil count (ANC) ([6]; WR low or high dose, G-CSF 25 μg/kg/day): remarkably increased absolute neutrophil count
lung tissue histology [6]: lung edema was observed
severity in leakage and exudate levels in the alveoli and ischemic change level in the liver tissue (order of groups) [9]: in the order of the group having received hydroxyurea, the group having received G-CSF, and the control group
